Reference: the NIST ThermoML archive (doi:10.1021/je400250u)

Legend:
[1] = refractive index (Na D-line) (dimensionless); xn = mol fraction of the nth substance listed; details: 101 kPa, Liquid, Standard Abbe refractometry
[2] = xn = mol fraction of the nth substance listed; details: 100 kPa, Liquid; for viscosity: Capillary tube (Ostwald / Ubbelohde) method; for mass density: Vibrating tube method

C1CC[C@H]2CCCC[C@@H]2C1 [trans-decahydronaphthalene] + CCCCCCCCCC
Details | mass density, [2] [kg/m3] | refractive index, [1] | viscosity, [2] [mPa·s]
293.15 K, x1 = 0.1035 | 743.5 | – | 0.98
293.15 K, x1 = 0.2016 | 755.54 | – | 1.035
293.15 K, x1 = 0.3001 | 768 | – | 1.099
293.15 K, x1 = 0.3994 | 781.01 | – | 1.175
293.15 K, x1 = 0.5036 | 795.1 | – | 1.272
293.15 K, x1 = 0.6062 | 809.53 | – | 1.388
293.15 K, x1 = 0.6989 | 822.98 | – | 1.514
293.15 K, x1 = 0.7891 | 836.46 | – | 1.649
293.15 K, x1 = 0.8949 | 852.8 | – | 1.848
293.15 K, x1 = 1 | 869.78 | – | 2.112
298.15 K, x1 = 0.1035 | 739.74 | 1.4144 | 0.91
298.15 K, x1 = 0.2016 | 751.79 | 1.4192 | 0.958
298.15 K, x1 = 0.3001 | 764.27 | 1.4243 | 1.019
298.15 K, x1 = 0.3994 | 777.28 | 1.4301 | 1.087
298.15 K, x1 = 0.5036 | 791.38 | 1.4355 | 1.174
298.15 K, x1 = 0.6062 | 805.81 | 1.4414 | 1.28
298.15 K, x1 = 0.6989 | 819.26 | 1.4471 | 1.394
298.15 K, x1 = 0.7891 | 832.75 | 1.4524 | 1.514
298.15 K, x1 = 0.8949 | 849.09 | 1.4592 | 1.694
298.15 K, x1 = 1 | 866.07 | 1.4662 | 1.925
303.15 K, x1 = 0.1035 | 735.97 | – | 0.848
303.15 K, x1 = 0.2016 | 748.02 | – | 0.89
303.15 K, x1 = 0.3001 | 760.51 | – | 0.946
303.15 K, x1 = 0.3994 | 773.52 | – | 1.01
303.15 K, x1 = 0.5036 | 787.63 | – | 1.09
303.15 K, x1 = 0.6062 | 802.07 | – | 1.185
303.15 K, x1 = 0.6989 | 815.53 | – | 1.285
303.15 K, x1 = 0.7891 | 829.02 | – | 1.396
303.15 K, x1 = 0.8949 | 845.37 | – | 1.555
303.15 K, x1 = 1 | 862.34 | – | 1.769
308.15 K, x1 = 0.1035 | 732.17 | 1.4099 | 0.794
308.15 K, x1 = 0.2016 | 744.24 | 1.4153 | 0.834
308.15 K, x1 = 0.3001 | 756.74 | 1.4204 | 0.884
308.15 K, x1 = 0.3994 | 769.76 | 1.4256 | 0.941
308.15 K, x1 = 0.5036 | 783.88 | 1.4317 | 1.013
308.15 K, x1 = 0.6062 | 798.32 | 1.4371 | 1.101
308.15 K, x1 = 0.6989 | 811.79 | 1.4431 | 1.197
308.15 K, x1 = 0.7891 | 825.29 | 1.4484 | 1.293
308.15 K, x1 = 0.8949 | 841.64 | 1.4553 | 1.436
308.15 K, x1 = 1 | 858.61 | 1.4618 | 1.628
313.15 K, x1 = 0.1035 | 728.37 | – | 0.744
313.15 K, x1 = 0.2016 | 740.45 | – | 0.778
313.15 K, x1 = 0.3001 | 752.95 | – | 0.828
313.15 K, x1 = 0.3994 | 765.99 | – | 0.881
313.15 K, x1 = 0.5036 | 780.11 | – | 0.947
313.15 K, x1 = 0.6062 | 794.56 | – | 1.024
313.15 K, x1 = 0.6989 | 808.04 | – | 1.113
313.15 K, x1 = 0.7891 | 821.54 | – | 1.201
313.15 K, x1 = 0.8949 | 837.9 | – | 1.33
313.15 K, x1 = 1 | 854.88 | – | 1.505
318.15 K, x1 = 0.1035 | 724.55 | 1.4055 | 0.702
318.15 K, x1 = 0.2016 | 736.64 | 1.4112 | 0.734
318.15 K, x1 = 0.3001 | 749.16 | 1.4162 | 0.777
318.15 K, x1 = 0.3994 | 762.2 | 1.4211 | 0.826
318.15 K, x1 = 0.5036 | 776.34 | 1.4271 | 0.887
318.15 K, x1 = 0.6062 | 790.8 | 1.4336 | 0.959
318.15 K, x1 = 0.6989 | 804.28 | 1.4389 | 1.032
318.15 K, x1 = 0.7891 | 817.79 | 1.4448 | 1.119
318.15 K, x1 = 0.8949 | 834.16 | 1.4518 | 1.237
318.15 K, x1 = 1 | 851.14 | 1.4581 | 1.394
323.15 K, x1 = 0.1035 | 720.72 | – | 0.662
323.15 K, x1 = 0.2016 | 732.82 | – | 0.696
323.15 K, x1 = 0.3001 | 745.35 | – | 0.732
323.15 K, x1 = 0.3994 | 758.4 | – | 0.777
323.15 K, x1 = 0.5036 | 772.55 | – | 0.834
323.15 K, x1 = 0.6062 | 787.02 | – | 0.896
323.15 K, x1 = 0.6989 | 800.51 | – | 0.966
323.15 K, x1 = 0.7891 | 814.04 | – | 1.046
323.15 K, x1 = 0.8949 | 830.41 | – | 1.154
323.15 K, x1 = 1 | 847.4 | – | 1.295
